Assay results published in a melting point compilation (Tetko et al.; mined from patent text by program, amines drawn as free bases though some values may be those of a salt).

Structure (SMILES) | melting point [°C]
COC(=O)c1ccc2[nH]cc(CC#N)c2c1 | 127 to 129
COc1cccc2c1CCC1C(=O)OC(=O)C21 (stereo not given) | 138 to 140
CC(=O)c1ccc2c(c1)C=CC(=O)CO2 | 92 to 93
COc1cc(-n2nc(C(F)(F)F)cc2-c2ccc(S(C)(=O)=O)cc2)ccc1F | 159 to 160
CN1CC[C@H](CP(=O)(O)O)C[C@@H]1C(=O)O (relative stereo) | 256 to 260
COc1c(OCCOc2ccc(C(C)(C)C)cc2)ccnc1C | 84 to 87
COC(=O)CC[C@H](NC(=O)c1ccc(NCCCc2c(NC(C)=O)nc(NC(C)=O)[nH]c2=O)cc1)C(=O)OC | 135 to 142
COc1cc(N)c(Cl)cc1C(=O)NC1C=NN(C)C1 (stereo not given) | 173 to 175
CCCCCCC(O)CCCCCCCC(COC(C)=O)(COC(C)=O)NC(C)=O (stereo not given) | 82 to 84
Cn1c(C(F)(F)F)cc(=O)n(-c2cc(OCc3ccccc3Cl)c(Cl)cc2F)c1=O | 126 to 129
CCCCNc1nc2cnnc(Cl)c2cc1C(=O)OCC | 127
Cc1cc(F)c([N+](=O)[O-])cc1[N+](=O)[O-] | 76
CCCOc1ccc(-c2ccc3c(c2)C(C)(C)CCC3(C)C)cc1-c1ccc(C(=O)O)cc1 | 199 to 204
NC(=O)c1c(F)ccc(OCc2ccc3sccc3c2)c1F | 146 to 148
C/C(=C\c1ccc(C(=O)O)cc1)c1ccc(O)c(C(C)(C)C)c1 | 209
CNC(=O)c1cccc2c1C1(COc3cc4c(cc31)OCCO4)C(=O)N2C (stereo not given) | 120 to 122
CN1CCC(Oc2ccccc2C(N)=O)C1 (stereo not given) | 116 to 118
CCCN(C1CC(C)(C)Oc2ccc(OCCOC)cc21)S(=O)(=O)CC (stereo not given) | 78 to 80
COc1cc(-n2c(I)nnc2I)ccc1C | 176
Cc1c(Cl)cccc1NC(=O)Nc1ccc(-n2nc(C(F)(F)F)cc2C(F)(F)F)cc1 | 193 to 196

Structure (SMILES) | melting point [°C]
Nc1nc2ccccc2c2c1nc(CO)n2CC1(O)CCCCC1 | 244 to 248
C/C(NCc1ccccc1)=C(\C#N)C(N)=S | 157 to 159
COc1cc(OC)nc(Oc2cccc(Cl)c2N)n1 | 86 to 87
Cn1ncc2c1-c1c(Oc3cccnc3)sc(C(=O)O)c1CC2 | 124 to 125
O=C(O)COc1c(Cl)cc(F)cc1Cl | 155 to 158
O=c1[nH]c2cc(Cl)ccc2n1C1CCN(C[C@H]2CO[C@@H](c3ccc(F)cc3)C2)CC1 (relative stereo) | 208
N#CCn1nnc(N)n1 | 105 to 106
O=C(Nc1cccc(F)c1)C12CC3CC(CC(C3)C1)C2 | 174 to 177
COCC1CN(c2ccc3nc(C(O)CCCO)sc3c2)C(=O)O1 (stereo not given) | 137 to 138
O=C(O)/C=C/C=C(c1ccc(F)cc1)c1ccc(F)cc1 | 186 to 188
CN1CCN(c2nc(NCc3ccco3)nc(Nc3ccc(O)cc3)n2)CC1 | 116 to 118
CC(C)CC1(C)NCCNC1=O (stereo not given) | 79 to 82
Cc1nc(=O)c(C)c(NCCc2cccn2C)[nH]1 | 246 to 247
CCOC(=O)C=C1CCc2c(c(OC)c(OC)c(OC)c2OC)CC1 | 61 to 63
COC(=O)CNC(=O)c1ccc(NS(=O)(=O)c2ccc(F)cc2)cn1 | 146 to 148
Nc1sc(-c2ccc(Cl)s2)c(CN(C2CCCCC2)C2CCCCC2)c1C(=O)c1ccc(Cl)cc1 | 195 to 197
O=C(O)c1cn(CC2CC2)c2c(F)c(F)c(F)cc2c1=O | 223 to 255
O=S(=O)(Nc1cccc(I)c1)C(F)(F)F | 75 to 77
O=Cc1cc(Br)ccc1C(=O)O | 202
CCOC1(OC)CC(C)=C(CCc2cccc(OC)c2)C=C1OC (stereo not given) | 178 to 180

Structure (SMILES) | melting point [°C]
CCOc1ccnc(C(C)NC(=O)Nc2ccc(Br)cn2)c1F (stereo not given) | 143 to 145
CC(=O)c1cc2cc(Br)ccc2s1 | 120 to 121
O=C(C=Cc1ccc(OC(F)(F)F)cc1)C=Cc1ccc(OC(F)(F)F)cc1 | 112 to 115
COc1cccc2c1C13CCN(C(=O)OCC(Cl)(Cl)Cl)C(C2)C1(C(=O)OCC(Cl)(Cl)Cl)CCC(=O)C3 (stereo not given) | 115 to 116
Cc1nnc2n1-c1sc3c(c1C(c1ccccc1Cl)=NC2)CCN(C(=S)Nc1ccccc1C(F)(F)F)C3 | 190 to 192
CC1Oc2ccc(CN3CC=C(c4ccccc4)CC3)cc2NC1=O (stereo not given) | 248 to 255
CCOC(=O)c1ccc(N(C(=O)OC(C)(C)C)N(C)C(C)=O)cc1 | 82
CCOc1ccc(C2SC(=N)NC2=O)c(OCC)c1 (stereo not given) | 179 to 181
CC1(c2ccc(N)cc2)C(=O)Nc2cc(Cl)ccc2C1=O (stereo not given) | 155 to 156
CN(C)C=NS(=O)(=O)c1cc(CCNC(=O)C(F)(F)F)ccc1OCC(F)(F)F | 130
Cc1c[nH]c(=O)nc1-n1cncn1 | 258 to 264
CCCCCCCCCCCCCCCCNc1ccc(C(=O)OCC2CO2)cc1 (stereo not given) | 86 to 89
CCOC(=O)c1sc(C)nc1OC(=S)N(C)C | 87 to 90
CCCC1OCc2c(O)c(C)nc(Cl)c21 (stereo not given) | 242
Nc1cc(-c2nc(-c3ccco3)no2)ccc1Cl | 203 to 204
COc1ccc(CONS(=O)(=O)c2ccc(C)cc2)cc1 | 109 to 111
COc1ccc(C(=O)c2cc([N+](=O)[O-])ccc2Cl)cc1OC | 138
O=C(O)c1nn(-c2ccc(Cl)cc2Cl)c2c1CCc1c(Br)csc1-2 | 239 to 242

Further lines, results first:

melting point [°C] | Structure (SMILES)
109 to 110 | CCOC(=O)COc1ccc(C=O)cc1NC(=O)c1ccc(OCCCCc2ccccc2)cc1
241 | CCC(=O)OCC(=O)C1(OC(=O)c2ccccc2)CCC2C3CC(C)C4=CC(=O)C=CC4(C)C3C(O)CC21C (stereo not given)
146 to 148 | COCC1CN(c2ccc(C3CCC(OC(c4ccccc4)c4ccccc4)CC3)cc2)C(=O)O1 (racemic)
103 to 105 | c1cc(CN2CCCCC2)cc(OCCCNc2nccc3ccccc23)c1
67 to 69 | CCN(CC)CCNC(=O)Cn1ncc(-c2ccccc2)c1-c1ccccc1
51 to 53 | Cc1ccc(CO)nc1-c1ccccn1
250 to 255 | O=C1Nc2cc(Cl)ccc2Oc2ccccc21
149 to 150 | CCOC(=O)CCCn1c(Nc2ccc(Cl)cc2)nc2c(Cl)ccc(C(CC)CC)c21
174 to 180 | c1ccc(-n2c3c(c4ccccc42)CCNCC3)cc1
80 to 82 | CN(Cc1ccccc1)c1cc(Oc2cccc(C(F)(F)F)c2)nc(C(=O)O)c1
187 | CCCc1nc(Sc2ccc(OC)cc2)c(CC(=O)O)n1Cc1cc2c(cc1Cl)OCO2
> 250 | Cc1ccc(-c2[nH]c(-c3ccncc3)nc2C(=O)Nc2nccs2)cc1
206 to 207 | O=C(NCCc1ccc(O)cc1)c1ccc2n1Cc1ccccc1N(C(=O)COc1ccc(Cl)cc1)C2
280 | NS(=O)(=O)Cc1cccc(NC(=O)c2cnn3c(C(F)F)cc(-c4ccc(C(F)(F)F)cc4)nc23)c1
160 to 162 | O=C(CCCCOc1ccc(-c2ccc(F)cc2)cc1)NO
186 to 188 | CC(C)[C@H](NC(=O)OCc1ccccc1)C(=O)N[C@@H](Cc1ccccc1)C(=O)C[C@@H]1CCCC[C@H]1C(=O)NC(C)(C)C
126 to 128 | COc1ccccc1NS(=O)(=O)c1ccc(C)cc1
114 to 116 | O=[N+]([O-])c1ccccc1Nc1nc(-c2ccccc2)cs1
126 to 127 | CCOC(=O)C1CCN(c2nc(COc3ccc(COc4nn(-c5ccccc5)cc4C=O)cc3OC)c(C)s2)CC1
86 to 89 | CCOC(=O)c1sc(-c2cccn2C)nc1-c1ccccc1
51 to 52 | COC(=O)CCc1cccc(Cl)c1C(=O)CCCNC(C)=O

melting point [°C] | Structure (SMILES)
139 to 140 | CCCCc1cn2nc3c(c(=O)n(CCC)c(=O)n3Cc3ccccc3)c2n1C
124 to 125 | COc1c(CN(C)C)c2c(c3c1OC(C)(C)C3)C(c1ccccc1)=NC(C)(C)C2
76 | COC(=O)C(C)(C)CCCN1CCN(C(=O)C=Cc2ccccc2)CC1
199 to 203 | CCOCc1nc2c(N)nc3cc(-c4ccccc4)ccc3c2n1CCCN1CCCC1=O
164 | O=C(Cc1cccs1)Nc1cccc2nc(N[C@@H]3CCc4ccccc43)ccc12
121 to 123 | CC1CN(c2ccccc2)C(=O)N(c2cccc(C(F)(F)F)c2)C1 (stereo not given)
260 | OC(Cc1ccc(Cl)cc1Cl)(Cn1cnnc1)c1ccc(-c2ccccc2)cc1 (stereo not given)
138 to 140 | O=C(C[C@H](C(=O)N[C@H](COC(=O)OCc1ccccc1)c1ccccc1)n1ccc(-c2ccc(-c3ccncc3)cc2)c1)OCc1ccccc1
135 to 137 | O=C1c2ccccc2C(=O)N1CCCOc1ccc(O)cc1
164 to 166 | O=C(c1ccccc1C(c1ccc(O)cc1)c1ccc(O)cc1)N1CC2CCC(CC2)C1
> 230 | C=C1CN(Cc2ccc(C(=O)Nc3ccccc3N)cc2)C(CC(=O)O)c2ccccc21 (stereo not given)
176 to 178 | COc1nnc(-c2cc3c([nH]c2=O)CCN(Cc2ccccc2)C3)o1
171 | CCOC(=O)C1=C(N)NC(C)=CC1c1ccccc1Cl (stereo not given)
96 to 98 | CCOC(=O)C(=O)N(CCO)N=Cc1ccccc1
125 to 126 | CCOC(=O)c1c(CCl)nc2sc3c(c2c1-c1ccc(OC)c(OC)c1)CN(C(=O)OCc1ccccc1)CC3
168 to 170 | O=C(c1ccccc1)c1[nH]c2cc(Cl)ccc2c1NC(=O)N1CCOCC1
76.5 | FC(F)(F)c1cccc(C(=CC2=NCCN2)c2ccc3ccccc3n2)c1
113 to 114 | COC(=O)CCCc1cc2nc(OC)ccc2n1S(=O)(=O)c1ccccc1
120 to 121 | O=C(Nc1ccccc1N1CCc2ccccc21)c1ccncc1
120 to 121 | O=C(NCc1ccncc1)c1cccc2c1OCCO2
194 to 197 | C[C@@H](Nc1ncnc2[nH]c(-c3ccc(CN(CCO)CCO)cc3)cc12)c1ccccc1
